Reference: PubChem BioAssay AID1259407 (Chemical Carcinogenesis Research Information System (CCRIS), 2018)
Activity calls are given as the source filed them. No rule for the calls is given here.

System: CCRIS mutagenicity, Ames/micronucleus/aberration tests
Experiment: CCRIS mutagenicity studies
[1] = Test System: AMES SALMONELLA TYPHIMURIUM, Strain/Indicator: TA98, Metabolic Activation: NONE, Method: PREINCUBATION
[2] = Test System: AMES SALMONELLA TYPHIMURIUM, Strain/Indicator: TA100, Metabolic Activation: NONE, Method: PREINCUBATION
[3] = Test System: AMES SALMONELLA TYPHIMURIUM, Strain/Indicator: TA98, Metabolic Activation: RAT, LIVER, S-9, PCB, Method: PREINCUBATION
[4] = Test System: AMES SALMONELLA TYPHIMURIUM, Strain/Indicator: TA100, Metabolic Activation: NONE, Method: STANDARD PLATE
[5] = Test System: AMES SALMONELLA TYPHIMURIUM, Strain/Indicator: TA98, Metabolic Activation: NONE, Method: STANDARD PLATE
[6] = Test System: AMES SALMONELLA TYPHIMURIUM, Strain/Indicator: TA98, Metabolic Activation: RAT, LIVER, S-9, AROCLOR 1254, Method: STANDARD PLATE
[7] = Test System: AMES SALMONELLA TYPHIMURIUM, Strain/Indicator: TA100, Metabolic Activation: RAT, LIVER, S-9, AROCLOR 1254, Method: STANDARD PLATE

Measured: mutagenic call

CCOC(=O)C(=NNc1ccc(-c2ccc(NN=C(C(=O)OCC)C(=O)OCC)cc2)cc1)C(=O)OCC
inactive: Test System: AMES SALMONELLA TYPHIMURIUM, Strain/Indicator: TA98, Metabolic Activation: HAMSTER, LIVER, S-9, Method: PREINCUBATION (PRIVAL METHOD) inactive; negative

O=C(OC1CCCCC1)c1ccccc1C(=O)OC1CCCCC1
inactive: Test System: AMES SALMONELLA TYPHIMURIUM, Strain/Indicator: TA98, Metabolic Activation: HAMSTER, LIVER, S-9, AROCLOR 1254 (10%), Method: PREINCUBATION inactive; negative | [1] inactive; negative | Test System: AMES SALMONELLA TYPHIMURIUM, Strain/Indicator: TA98, Metabolic Activation: RAT, LIVER, S-9, AROCLOR 1254 (10%), Method: PREINCUBATION inactive; negative | Test System: AMES SALMONELLA TYPHIMURIUM, Strain/Indicator: TA100, Metabolic Activation: HAMSTER, LIVER, S-9, AROCLOR 1254 (10%), Method: PREINCUBATION inactive; negative | [2] inactive; negative | Test System: AMES SALMONELLA TYPHIMURIUM, Strain/Indicator: TA100, Metabolic Activation: RAT, LIVER, S-9, AROCLOR 1254 (10%), Method: PREINCUBATION inactive; negative | Test System: AMES SALMONELLA TYPHIMURIUM, Strain/Indicator: TA1535, Metabolic Activation: HAMSTER, LIVER, S-9, AROCLOR 1254 (10%), Method: PREINCUBATION inactive; negative | Test System: AMES SALMONELLA TYPHIMURIUM, Strain/Indicator: TA1535, Metabolic Activation: NONE, Method: PREINCUBATION inactive; negative | Test System: AMES SALMONELLA TYPHIMURIUM, Strain/Indicator: TA1535, Metabolic Activation: RAT, LIVER, S-9, AROCLOR 1254 (10%), Method: PREINCUBATION inactive; negative | Test System: AMES SALMONELLA TYPHIMURIUM, Strain/Indicator: TA1537, Metabolic Activation: HAMSTER, LIVER, S-9, AROCLOR 1254 (10%), Method: PREINCUBATION inactive; negative | Test System: AMES SALMONELLA TYPHIMURIUM, Strain/Indicator: TA1537, Metabolic Activation: NONE, Method: PREINCUBATION inactive; negative | Test System: AMES SALMONELLA TYPHIMURIUM, Strain/Indicator: TA1537, Metabolic Activation: RAT, LIVER, S-9, AROCLOR 1254 (10%), Method: PREINCUBATION inactive; negative

Cc1ccc(N)cc1[N+](=O)[O-]
inactive: Test System: AMES SALMONELLA TYPHIMURIUM, Strain/Indicator: TA98, Metabolic Activation: NONE, Method: SUSPENSION/PLATE inactive; negative | [3] inactive; negative | Test System: AMES SALMONELLA TYPHIMURIUM, Strain/Indicator: TA98, Metabolic Activation: RAT, LIVER, S-9, PHENOBARBITAL AND 5,6-BENZOFLAVONE, Method: SUSPENSION/PLATE inactive; negative | Test System: AMES SALMONELLA TYPHIMURIUM, Strain/Indicator: TA100, Metabolic Activation: NONE, Method: SUSPENSION/PLATE inactive; negative | Test System: AMES SALMONELLA TYPHIMURIUM, Strain/Indicator: TA100, Metabolic Activation: RAT, LIVER, S-9, PHENOBARBITAL AND 5,6-BENZOFLAVONE, Method: SUSPENSION/PLATE inactive; negative
active: Test System: AMES SALMONELLA TYPHIMURIUM, Strain/Indicator: TA98, Metabolic Activation: RAT, LIVER, S-9, KANECHLOR 500, Method: PREINCUBATION active; positive | [2] active; positive | Test System: AMES SALMONELLA TYPHIMURIUM, Strain/Indicator: TA100, Metabolic Activation: RAT, LIVER, S-9, KANECHLOR 500, Method: PREINCUBATION active; positive

CC(=O)C(=O)c1ccccc1
inactive: [4] inactive; negative

CN(Cc1cccc(Cl)c1)N=O
active: Test System: AMES SALMONELLA TYPHIMURIUM, Strain/Indicator: TA1535, Metabolic Activation: HAMSTER, LIVER, S-9, AROCLOR 1254, Method: STANDARD PLATE active; positive
inactive: Test System: AMES SALMONELLA TYPHIMURIUM, Strain/Indicator: TA1535, Metabolic Activation: NONE, Method: STANDARD PLATE inactive; negative

COC(=O)Nc1nc2ccc(/C(=N/O)c3ccc(F)cc3)cc2[nH]1
active: [6] active; positive
inactive: [5] inactive; negative | [4] inactive; negative | [7] inactive; negative

Oc1cc2cc3c(ccc4ccccc43)cc2c2ccccc12
active: Test System: CHINESE HAMSTER V-79, Strain/Indicator: V-79/8-AZAGUANINE, Metabolic Activation: NONE, Method: STANDARD PLATE active; positive

O=C1CC[C@@]2(O)[C@H]3Cc4ccc(O)c5c4[C@@]2(CCN3CC2CC2)[C@H]1O5
active: Test System: UDS HUMAN FIBROBLASTS, Strain/Indicator: THY INCORP (NON-S-PHASE), Metabolic Activation: NONE, Method: AUTORADIOGRAPHY active; positive

O=C1CCC(=O)N1c1ccc(Cl)c(Cl)c1
inactive: [5] inactive; negative | [6] inactive; negative | [4] inactive; negative | [7] inactive; negative

CC(=O)C1=CC[C@H]2C3=CCC4=C[C@@H](O)[C@H](O)C[C@]4(C)C3C[C@@H](O)[C@]12C (some centres not stated)
inactive: Test System: AMES SALMONELLA TYPHIMURIUM, Strain/Indicator: TM677, Metabolic Activation: NONE, Method: STANDARD PLATE inactive; negative | Test System: AMES SALMONELLA TYPHIMURIUM, Strain/Indicator: TM677, Metabolic Activation: RAT, LIVER, S-9, AROCLOR 1254, Method: STANDARD PLATE inactive; negative | Test System: CHINESE HAMSTER OVARY, Strain/Indicator: CHO/6-THIOGUANINE, Metabolic Activation: NONE, Method: STANDARD PLATE inactive; negative

Nc1ncnc2c1ncn2-c1ccc([N+](=O)[O-])cc1[N+](=O)[O-]
inactive: Test System: AMES SALMONELLA TYPHIMURIUM, Strain/Indicator: TA98(1,8-DNP), Metabolic Activation: NONE, Method: PREINCUBATION inactive; negative | Test System: AMES SALMONELLA TYPHIMURIUM, Strain/Indicator: TA98(1,8-DNP), Metabolic Activation: RAT, LIVER, S-9, PCB, Method: PREINCUBATION inactive; negative | Test System: AMES SALMONELLA TYPHIMURIUM, Strain/Indicator: TA98(NR), Metabolic Activation: NONE, Method: PREINCUBATION inactive; negative | Test System: AMES SALMONELLA TYPHIMURIUM, Strain/Indicator: TA98(NR), Metabolic Activation: RAT, LIVER, S-9, PCB, Method: PREINCUBATION inactive; negative | [1] inactive; negative | [3] inactive; negative | Test System: AMES SALMONELLA TYPHIMURIUM, Strain/Indicator: TA100(1,8-DNP), Metabolic Activation: RAT, LIVER, S-9, PCB, Method: PREINCUBATION inactive; negative | Test System: AMES SALMONELLA TYPHIMURIUM, Strain/Indicator: TA100(NR), Metabolic Activation: NONE, Method: PREINCUBATION inactive; negative | Test System: AMES SALMONELLA TYPHIMURIUM, Strain/Indicator: TA100(NR), Metabolic Activation: RAT, LIVER, S-9, PCB, Method: PREINCUBATION inactive; negative | Test System: AMES SALMONELLA TYPHIMURIUM, Strain/Indicator: YG1020, Metabolic Activation: RAT, LIVER, S-9, PCB, Method: PREINCUBATION inactive; negative | Test System: AMES SALMONELLA TYPHIMURIUM, Strain/Indicator: YG1021, Metabolic Activation: RAT, LIVER, S-9, PCB, Method: PREINCUBATION inactive; negative | Test System: AMES SALMONELLA TYPHIMURIUM, Strain/Indicator: YG1025, Metabolic Activation: NONE, Method: PREINCUBATION inactive; negative | Test System: AMES SALMONELLA TYPHIMURIUM, Strain/Indicator: YG1025, Metabolic Activation: RAT, LIVER, S-9, PCB, Method: PREINCUBATION inactive; negative | Test System: AMES SALMONELLA TYPHIMURIUM, Strain/Indicator: YG1026, Metabolic Activation: NONE, Method: PREINCUBATION inactive; negative | Test System: AMES SALMONELLA TYPHIMURIUM, Strain/Indicator: YG1026, Metabolic Activation: RAT, LIVER, S-9, PCB, Method: PREINCUBATION inactive; negative
active: [2] active; positive | Test System: AMES SALMONELLA TYPHIMURIUM, Strain/Indicator: YG1024, Metabolic Activation: NONE, Method: PREINCUBATION active; positive | Test System: AMES SALMONELLA TYPHIMURIUM, Strain/Indicator: YG1024, Metabolic Activation: RAT, LIVER, S-9, PCB, Method: PREINCUBATION active; positive | Test System: AMES SALMONELLA TYPHIMURIUM, Strain/Indicator: YG1029, Metabolic Activation: NONE, Method: PREINCUBATION active; positive | Test System: AMES SALMONELLA TYPHIMURIUM, Strain/Indicator: YG1029, Metabolic Activation: RAT, LIVER, S-9, PCB, Method: PREINCUBATION active; positive
